Laboratory results: ChEMBL document CHEMBL1201862, “PubChem BioAssay data set” (2004)
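Values below derive from 48-hour exposures of cells grown in 96-well plates, with endpoints linearly interpolated between the two concentrations bracketing the appropriate inhibition level. GI50 marks 50% less growth.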 Calls of active or inactive are those of the source. Cut-off read from the data, not from the text of the source: active = GI50 up to about 1.1 µM and inactive = higher.

What was measured:
Assay in all cases: NCI-60 cell line screen, 48 h
SR = test system: SR
RXF 393 = test system: RXF 393
SNB-75 = test system: SNB-75
SF-295 = test system: SF-295
NCI-H23 = test system: NCI-H23
NCI-H226 = test system: NCI-H226
SNB-19 = test system: SNB-19
IGROV-1 = test system: IGROV-1
786-0 = test system: 786-0
OVCAR-5 = test system: OVCAR-5
A549 = test system: A549
UACC-257 = test system: UACC-257
HCT-116 = test system: HCT-116
SF-268 = test system: SF-268
UACC-62 = test system: UACC-62
MCF7 = test system: MCF7
NCI/ADR-RES = test system: NCI/ADR-RES
Hs-578T = test system: Hs-578T
DU-145 = test system: DU-145

Row | SMILES | GI50 (SR) | GI50 (RXF 393) | GI50 (SNB-75) | GI50 (SF-295) | GI50 (NCI-H23) | GI50 (NCI-H226) | GI50 (SNB-19) | GI50 (IGROV-1) | GI50 (786-0) | GI50 (OVCAR-5) | GI50 (A549) | GI50 (UACC-257) | GI50 (HCT-116) | GI50 (SF-268) | GI50 (UACC-62) | GI50 (MCF7) | GI50 (NCI/ADR-RES) | GI50 (Hs-578T) | GI50 (DU-145)
1 | NC1=NS(=O)(=O)N=C(N)C1=Cc1ccc([N+](=O)[O-])o1 | 3.73 µM (inactive) | 18.8 µM (inactive) | 16.3 µM (inactive) | 25.4 µM (inactive) | 17.3 µM (inactive) | 30.8 µM (inactive) | 32.8 µM (inactive) | 18.2 µM (inactive) | 17.1 µM (inactive) | 18.9 µM (inactive) | 52 µM (inactive) | 15.5 µM (inactive) | 15.4 µM (inactive) | 17.5 µM (inactive) | 16.4 µM (inactive) | – | – | – | –
2 | O=C(NCO)NCOCn1c(=O)n(CO)c(=O)n(CO)c1=O | 29.2 µM (inactive) | 15.2 µM (inactive) | 35.8 µM (inactive) | > 91 µM (inactive) | 19.8 µM (inactive) | > 100 µM (inactive) | > 31.6 µM (inactive) | > 100 µM (inactive) | 34.6 µM (inactive) | > 100 µM (inactive) | 66.7 µM (inactive) | 49.9 µM (inactive) | 31.6 µM (inactive) | 31.3 µM (inactive) | 19.1 µM (inactive) | – | – | – | –
3 | CCN(CC)C(=S)N/N=C1\C(=O)Nc2ccccc21 | 0.968 µM (active) | 1.3 µM (inactive) | 1.31 µM (inactive) | 0.45 µM (active) | 2.9 µM (inactive) | 0.59 µM (active) | 1.69 µM (inactive) | 0.239 µM (active) | 0.432 µM (active) | 6.18 µM (inactive) | 0.638 µM (active) | 1.64 µM (inactive) | 0.386 µM (active) | > 100 µM (inactive) | 1.31 µM (inactive) | 0.397 µM (active) | 0.152 µM (active) | 0.771 µM (active) | > 100 µM (inactive)
4 | CN(C)Cc1cc(C(C)(C)C)cc(C2CCCCC2)c1O | 12.3 µM (inactive) | 12.6 µM (inactive) | 10.3 µM (inactive) | – | 24.9 µM (inactive) | 15.7 µM (inactive) | 13 µM (inactive) | 18.8 µM (inactive) | 20.7 µM (inactive) | 17 µM (inactive) | 13.6 µM (inactive) | 10.1 µM (inactive) | 40.7 µM (inactive) | 16.8 µM (inactive) | 16.1 µM (inactive) | 18.3 µM (inactive) | 19.6 µM (inactive) | 16.6 µM (inactive) | 14.7 µM (inactive)
5 | CCOC(=O)NC(NC1=NCCS1)(C(=O)OCC)C(F)(F)F (stereo not given) | > 100 µM (inactive) | > 100 µM (inactive) | > 100 µM (inactive) | > 100 µM (inactive) | > 100 µM (inactive) | > 100 µM (inactive) | > 100 µM (inactive) | > 100 µM (inactive) | > 100 µM (inactive) | > 100 µM (inactive) | > 100 µM (inactive) | > 100 µM (inactive) | > 100 µM (inactive) | > 100 µM (inactive) | – | > 100 µM (inactive) | > 100 µM (inactive) | > 100 µM (inactive) | > 100 µM (inactive)
6 | O=C1NC(=S)NC(=O)C1=Cc1ccc2ccccc2n1 | > 100 µM (inactive) | > 100 µM (inactive) | > 100 µM (inactive) | > 100 µM (inactive) | > 100 µM (inactive) | > 100 µM (inactive) | > 100 µM (inactive) | > 100 µM (inactive) | > 100 µM (inactive) | > 100 µM (inactive) | > 100 µM (inactive) | > 100 µM (inactive) | > 100 µM (inactive) | > 100 µM (inactive) | > 100 µM (inactive) | – | – | – | –
7 | O=C1C(c2ccccc2)=[N+]([O-])c2ccc(Cl)cc21 | 34.7 µM (inactive) | 13.2 µM (inactive) | 46.8 µM (inactive) | 34.1 µM (inactive) | 31.6 µM (inactive) | 14.7 µM (inactive) | 34.5 µM (inactive) | 20.6 µM (inactive) | 82.4 µM (inactive) | 35.2 µM (inactive) | 32.1 µM (inactive) | 19.3 µM (inactive) | 15.8 µM (inactive) | 22.4 µM (inactive) | 17.5 µM (inactive) | – | – | – | –
8 | COC(=O)c1ccccc1CC1Cc2cc3c(cc2C1)CCC3 | 5.58 µM (inactive) | 20.9 µM (inactive) | 26.7 µM (inactive) | 33.7 µM (inactive) | 38.5 µM (inactive) | 35.2 µM (inactive) | 74.1 µM (inactive) | 37.3 µM (inactive) | 36.5 µM (inactive) | 50.4 µM (inactive) | 36.1 µM (inactive) | 31.2 µM (inactive) | 22.1 µM (inactive) | 40.8 µM (inactive) | – | 45.9 µM (inactive) | > 100 µM (inactive) | 45.8 µM (inactive) | 40.5 µM (inactive)
9 | COc1c(F)c(F)c(C(=O)/C=C2\Nc3ccccc3NC2=O)c(F)c1F | > 10 µM (inactive) | 9.51 µM (inactive) | 2.25 µM (inactive) | 5.52 µM (inactive) | > 10 µM (inactive) | – | – | 7.33 µM (inactive) | 2.32 µM (inactive) | – | 9.16 µM (inactive) | > 10 µM (inactive) | – | 9.1 µM (inactive) | > 10 µM (inactive) | > 10 µM (inactive) | – | – | > 10 µM (inactive)
10 | Clc1cc(Cl)ncn1 | > 100 µM (inactive) | > 100 µM (inactive) | > 100 µM (inactive) | > 100 µM (inactive) | > 100 µM (inactive) | > 100 µM (inactive) | > 100 µM (inactive) | > 100 µM (inactive) | > 100 µM (inactive) | > 100 µM (inactive) | > 100 µM (inactive) | – | > 100 µM (inactive) | > 100 µM (inactive) | > 100 µM (inactive) | > 100 µM (inactive) | > 100 µM (inactive) | > 100 µM (inactive) | > 100 µM (inactive)
11 | CN(C)CC1CC/C(=C\c2ccc(Cl)cc2)C1=O (stereo not given) | – | 3.16 µM (inactive) | 14.8 µM (inactive) | 17.2 µM (inactive) | 8.13 µM (inactive) | 19.9 µM (inactive) | 15.8 µM (inactive) | 14.6 µM (inactive) | 2.2 µM (inactive) | 18.2 µM (inactive) | 20.4 µM (inactive) | 8.17 µM (inactive) | 3.31 µM (inactive) | 7.03 µM (inactive) | 7.5 µM (inactive) | 1.87 µM (inactive) | 3.24 µM (inactive) | – | –
12 | CCOC(=O)c1csc(CCCCCCc2nc(C(=O)OCC)cs2)n1 | > 100 µM (inactive) | 31.6 µM (inactive) | 21.1 µM (inactive) | 52.2 µM (inactive) | 43.2 µM (inactive) | 44.9 µM (inactive) | > 76.4 µM (inactive) | > 100 µM (inactive) | 33.2 µM (inactive) | > 100 µM (inactive) | > 45.6 µM (inactive) | 34.8 µM (inactive) | 35.9 µM (inactive) | 34 µM (inactive) | > 83.8 µM (inactive) | – | – | – | –
13 | C1CN(P2(N3CC3)=NP(N3CC3)(N3CC3)=NP(N3CC3)(N3CC3)=N2)CCO1 (stereo not given) [FOTRETAMINE] | 2.47 µM (inactive) | > 100 µM (inactive) | 55.7 µM (inactive) | 54.7 µM (inactive) | 27.4 µM (inactive) | > 85.5 µM (inactive) | > 100 µM (inactive) | > 100 µM (inactive) | 55.3 µM (inactive) | > 100 µM (inactive) | > 100 µM (inactive) | 83.8 µM (inactive) | > 100 µM (inactive) | 47.3 µM (inactive) | > 56.6 µM (inactive) | – | – | – | –
